Consider 3 compounds from patent US20100278733A1, “COMPOSITION FOR DIAGNOSIS OF AMYLOID-RELATED DISEASE” (priority 2007, published 2010).

One series has as its target T1, Aβ(1-40) aggregate (Homo sapiens, UniProt P05067).
T1 construct: Amyloid β protein (Human, 1-40) [HCl form]; purchased Peptide Institute, Inc
Nature of the series: In-vitro binding experiment of chalcone derivatives using Aβ aggregate (Reference Example 1). The following applies: in words; radioactivity on filter in presence vs absence of Aβ aggregate, FIG. 14; compound numbers of Reference Example 1. The protocol: As a radioactive iodine-125 (^125I), IODINE-125 (74 MBq) manufactured by Amersham Biosciences was used. Reverse phase HPLC was performed at a flow rate of 1.0 mL/min using Cosmosil 5C18-AR Column (4.6×150 mm) manufactured by Nacalai Tesque Inc. and ultrapure water (A) and acetonitrile (B) (A:B=40:60) as an elution solvent. ^1H-NMR was measured using Varian Gemini 300 and tetramethylsilane as an internal standard substance. Mass spectrometry was performed using JEOL IMS-DX300. Amyloid β protein (Human, 1-40) [HCl form] and Amyloid β protein (Human, 1-42) [TFA form] were purchased from Peptide Institute, Inc., and special grade reagents were used as other reagents.
The Aβ aggregate was dissolved in a buffer containing 10 mM sodium phosphate and 1 mM EDTA (pH 7.4) at a concentration of 0.5 mg/mL, and the mixture was incubated at 37° C. for 36 to 42 h. The binding experiment was performed using 12×75 mm borosilicate glass tubes. 900 μL of 10% ethanol solution, 50 μL (57 nM) of an Aβ(1-40) aggregate solution, and 50 μL of [^125I]Compound 7 or 12 having various concentrations were mixed, and the mixture was allowed to stand at room temperature for 3 h. […] The radioactivities of substances remaining in the filter used for filtration were measured with a γ counter.

Series [1] is described as follows: In-vivo radioactivity distribution experiment using normal mice (Example 2). The following applies: Example 2 numbering; for In-vivo radioactivity distribution: blood / In-vivo radioactivity distribution: brain / In-vivo radioactivity distribution: heart / In-vivo radioactivity distribution: intestine / In-vivo radioactivity distribution: kidney / In-vivo radioactivity distribution: liver / In-vivo radioactivity distribution: lung / In-vivo radioactivity distribution: pancreas / In-vivo radioactivity distribution: spleen / In-vivo radioactivity distribution: stomach: normal mice, intravenous. The protocol: Radioactive iodine labeling compounds were diluted with physiological saline containing 10% EtOH. To each of four or five 5-week-old male ddY mice (20 to 25 g) per group, […] of a labeled compound, [^125I]Compound 7, 10, 13, or 14 (0.2 to 0.4 mCi), was administered from the caudal vein. Animals were decapitated at 2, 10, 30, or 60 min, blood was collected, the major organs were isolated, and then weights and radioactivities thereof were measured.

The subject of series [2] is senile plaque amyloid and vascular amyloid. The series is described as follows: Fluorescence staining experiment using brain tissue sections of Alzheimer's disease model mice. The class given is binding, APP/PS1 double transgenic mouse. To be noted: in words; 100 μM in 50% aqueous ethanol, fluorescence microscope, FIG. 11. The protocol: As an Alzheimer's disease model mouse, APP/PS1 double transgenic mouse was used. The brain was removed, immobilized with 10% formaldehyde, dehydrated with alcohol and xylene, and then paraffin-embedded. The paraffin-embedded brain tissue was cut into a 5-μm section, and the section was treated with xylene, alcohol, and water and deparaffinized. The section was incubated in PBS for 30 min and then in solutions of various chalcone derivatives (100 μM) in 50% aqueous ethanol for 10 min. The section was washed with 50% ethanol and PBS and then examined with a fluorescence microscope (Leica TCS SP2).

For series [3], the target named is T2, Aβ(1-42) aggregate (Homo sapiens, UniProt P05067).
T2 construct: Amyloid β protein (Human, 1-42) [TFA form] was purchased from Peptide Institute, Inc; purchased Peptide Institute, Inc
The series is described as follows: Examination of binding site by binding inhibition experiment using Aβ(1-42) aggregate (Example 2). To be noted: FIG. 10, compound numbers of Example 2, read-out: Ki for inhibition of binding of [^125I]CL-NMe2 to the Aβ(1-42) aggregate. The protocol: (§1) Aβ(1-42) was dissolved in 10 mM phosphate buffer containing 1 mM EDTA (pH 7.4) at a concentration of 0.25 mg/mL, and the mixture was incubated at 37° C. for 42 h to prepare an Aβ(1-42) aggregate.
[…] of 10% EtOH solution, […] of [^125I]CL-NMe2 solution, […] of a solution of congo red, thioflavine T, or compound 14 at various concentrations (0 to 20 mM) were mixed, […] of an Aβ(1-42) aggregate solution was finally added, and the mixture was allowed to stand at room temperature for 3 h. Aβ(1-42) aggregate-bound compounds and nonbound compounds were separated with a Brandel M-24R cell harvester using a Whatman GF/B filter. Radioactivities remaining on the filter after filtration were measured with a γ-counter, and inhibition curves were created using Graph Pad Prism 4.0 to calculate inhibition constants.

The target of series [4] is T2, Aβ(1-42) aggregate. The series is described as follows: Binding inhibition experiment using Aβ(1-42) aggregate, Ki values (Example 2). To be noted: radioactive ligand [^125I]CL-NMe2; mean ± standard error of 3 experiments (compound 4: 6 experiments); compound numbers of Example 2; read-out: Ki values calculated by inhibition experiment. The protocol:
As a radioactive iodine-125 (^125I), Iodine-125 (3.7 GBq/mL) manufactured by MP Biomedicals, Inc. was used. Reverse phase HPLC was performed at a flow rate of 1.0 mL/min using a Cosmosil 5C18-AR-II column (4.6×150 mm) manufactured by Nacalai Tesque Inc. and ultrapure water:acetonitrile=3:7 as an elution solvent. ^1HNMR was measured using Varian Gemini 300 and tetramethylsilane as an internal standard substance. Mass spectrometry was performed using JEOL IMS-DX300. Preparative TLC was performed using 12 PLC plates 20×20-cm-Silica gel 60 F254, 2 mm manufactured by MERCK. Amyloid β protein (Human, 1-42) was purchased from Peptide Institute, Inc., and special grade reagents were used as other reagents.
as §1
850 mL of 10% EtOH solution, […] of a solution of [^125I]4-diethylamino-4′-iodochalcone ([^125I]CL-NMe2) in 10% ethanol, and […] of a sample solution at various concentrations (0 to 20 mM) were mixed, […] of an Aβ(1-42) aggregate solution was finally added, and the mixture was allowed to stand at room temperature for 3 h. Aβ(1-42) aggregate-bound compounds and nonbound compounds were separated with a Brandel M-24R cell harvester using a Whatman GF/B filter. Radioactivities remaining on the filter after filtration were measured with a γ-counter, and inhibition curves were created using Graph Pad Prism 4.0 to calculate inhibition constants (Ki values).

Series [5] has as its target T2, Aβ(1-42) aggregate. Nature of the series: In-vitro binding inhibition experiment using Aβ(1-42) aggregate (Example 1). The following applies: compound numbers of Example 1. How it is done:
Amyloid β protein (Human, 1-42) [TFA form] was purchased from Peptide Institute, Inc., and special grade reagents were used as other reagents. ^1H-NMR was measured using Varian Gemini 300 and tetramethylsilane as an internal standard substance.
The Aβ(1-42) aggregate was dissolved in a buffer containing 10 mM sodium phosphate and 1 mM EDTA (pH 7.4) at a concentration of 0.5 mg/mL, and the mixture was incubated at 37° C. for 36 to 42 h. The binding inhibition experiment was performed using 12×75-mm borosilicate glass tubes. 850 μL of 10% ethanol solution, 50 μL of an Aβ-binding substance ([^125I]4-dimethylamino-4′ iodochalcone) (10% aqueous ethanol), 50 μL (57 nM) of Aβ(1-42) aggregate solution, and 50 μL of 10% aqueous ethanol each containing Compounds 1 and 4 at various concentrations (0.003 to 781 nM) were mixed, and the mixture was allowed to stand at room temperature for 3 h. Further, nonspecific binding was determined using 4-dimethylamino-4′-iodochalcone (400 nM), a nonradioactive compound. Aβ aggregate-bound chalcone derivatives and nonbound chalcone derivatives were separated with a Brandel M-24R cell harvester using a Whatman GF/B filter. The radioactivities of substances remaining on the filter after filtration were measured with a γ counter. […]

T2 sequence (P05067 672-713 limits assumed): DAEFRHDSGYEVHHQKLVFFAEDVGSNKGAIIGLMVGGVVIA
T1 sequence (P05067 672-711 limits assumed): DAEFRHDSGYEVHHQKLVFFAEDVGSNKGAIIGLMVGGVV

Take `CN(C)c1ccc(/C=C/C(=O)c2ccc(I)cc2)cc1` [Compound 12 in Reference Example 1]: the “binding property to the Aβ aggregate” value at Aβ(1-40) aggregate was “strong binding property”.
As for `CN(C)c1ccc(C=CC(=O)c2ccc(I)s2)cc1` [Compound 14 in Example 2, 1-(5-iodo-2-thienyl)-3-(4-dimethylaminophenyl)-prop-2-en-1-one], the “stability in the organism” value in series [1] (in words: radioactivity accumulation in the stomach, retention in blood, deiodination) is reported as “instability in the organism”. In series [1] (2 min), the “In-vivo radioactivity distribution: blood” value is 4.91 (0.71) percent of the dose/g, the “In-vivo radioactivity distribution: brain” value is given as 2.40 (0.30) percent of the dose/g, the “In-vivo radioactivity distribution: heart” value is given as 5.05 (0.95) percent of the dose/g and the “In-vivo radioactivity distribution: intestine” value is on record as 1.73 (0.21) percent of the dose/g. In series [1] (2 min), the “In-vivo radioactivity distribution: kidney” value was 7.41 (1.54) percent of the dose/g, the “In-vivo radioactivity distribution: liver” value is reported as 9.57 (2.00) percent of the dose/g, the “In-vivo radioactivity distribution: lung” value is 8.29 (0.99) percent of the dose/g and the “In-vivo radioactivity distribution: pancreas” value is reported as 3.82 (0.57) percent of the dose/g. Besides, in series [1] (2 min), the “In-vivo radioactivity distribution: spleen” value is given as 4.05 (0.63) percent of the dose/g and the “In-vivo radioactivity distribution: stomach” value is recorded as 1.21(0.27) percent of the dose. Moreover, in series [1] (10 min), the “In-vivo radioactivity distribution: blood” value is on record as 3.58 (0.35) percent of the dose/g, the “In-vivo radioactivity distribution: brain” value is given as 0.75 (0.31) percent of the dose/g, the “In-vivo radioactivity distribution: heart” value was 3.02 (0.60) percent of the dose/g and the “In-vivo radioactivity distribution: intestine” value is listed as 2.57 (0.53) percent of the dose/g. Moreover, in series [1] (10 min), the “In-vivo radioactivity distribution: kidney” value is given as 4.66 (0.68) percent of the dose/g, the “In-vivo radioactivity distribution: liver” value was 7.10 (1.08) percent of the dose/g, the “In-vivo radioactivity distribution: lung” value is 5.17 (0.69) percent of the dose/g and the “In-vivo radioactivity distribution: pancreas” value is on record as 1.94 (0.80) percent of the dose/g. Moreover, in series [1] (10 min), the “In-vivo radioactivity distribution: spleen” value is listed as 5.48 (1.02) percent of the dose/g and the “In-vivo radioactivity distribution: stomach” value is 5.29 (1.24) percent of the dose. Besides, in series [1] (30 min), the “In-vivo radioactivity distribution: blood” value is listed as 2.92 (0.60) percent of the dose/g, the “In-vivo radioactivity distribution: brain” value is reported as 0.31 (0.04) percent of the dose/g, the “In-vivo radioactivity distribution: heart” value was 1.48 (0.78) percent of the dose/g and the “In-vivo radioactivity distribution: intestine” value is on record as 4.05 (0.99) percent of the dose/g. Moreover, in series [1] (30 min), the “In-vivo radioactivity distribution: kidney” value is recorded as 4.31 (1.01) percent of the dose/g, the “In-vivo radioactivity distribution: liver” value is reported as 5.95 (1.19) percent of the dose/g, the “In-vivo radioactivity distribution: lung” value is on record as 3.53 (0.35) percent of the dose/g and the “In-vivo radioactivity distribution: pancreas” value is given as 1.95 (0.32) percent of the dose/g. In series [1] (30 min), the “In-vivo radioactivity distribution: spleen” value was 5.01 (1.72) percent of the dose/g and the “In-vivo radioactivity distribution: stomach” value was 9.81 (6.47) percent of the dose. In series [1] (60 min), the “In-vivo radioactivity distribution: blood” value is on record as 2.63 (0.45) percent of the dose/g, the “In-vivo radioactivity distribution: brain” value is listed as 0.21 (0.02) percent of the dose/g, the “In-vivo radioactivity distribution: heart” value is listed as 1.65 (0.24) percent of the dose/g and the “In-vivo radioactivity distribution: intestine” value is given as 4.69 (1.64) percent of the dose/g. Besides, in series [1] (60 min), the “In-vivo radioactivity distribution: kidney” value is recorded as 2.44 (0.35) percent of the dose/g, the “In-vivo radioactivity distribution: liver” value is reported as 4.96 (1.27) percent of the dose/g, the “In-vivo radioactivity distribution: lung” value is on record as 2.87 (0.46) percent of the dose/g and the “In-vivo radioactivity distribution: pancreas” value is 1.86 (0.27) percent of the dose/g. Moreover, in series [1] (60 min), the “In-vivo radioactivity distribution: spleen” value was 3.03 (0.31) percent of the dose/g and the “In-vivo radioactivity distribution: stomach” value is on record as 8.73 (4.21) percent of the dose. In addition, in series [2], the “binding property to senile plaque amyloid and vascular amyloid on brain tissue sections” value was “stronger than that of fluorine-containing chalcone derivatives”. Also, the inhibition constant (Ki) (in general, a measure of affinity in units of concentration, obtained from inhibition or displacement) at Aβ(1-42) aggregate [3] is 4 nM. The Ki at Aβ(1-42) aggregate [4] was 3.9 ± 0.4 nM.
`CN(C)c1ccc(/C=C/C(=O)c2ccc(I)s2)cc1` [Compound 1 in Example 1, (E)-3-(4-(dimethylamino)phenyl)-1-(5-iodothiophen-2-yl)prop-2-en-1-one]: the “binding property to the amyloid aggregate” value at Aβ(1-42) aggregate [5] (in words) was “very strong binding property”. Besides, on Aβ(1-42) aggregate [5] (ligand [^125I]4-dimethylamino-4′-iodochalcone, mean and standard deviation of three experiments, read-out: Inhibition constants (Ki) for binding to Aβ(1-42) aggregate), the Ki was 5.2 ± 0.7 nM.
